Assay results from patent US10023519B2, “Cyclobutane containing carboxylic acid GPR120 modulators” (BRISTOL-MYERS SQUIBB COMPANY, priority 2014, dated 2018).

Target: human GPR120 (Homo sapiens (Human), UniProt Q5NUL3)
Assay: GPR120 pERK AlphaScreen SureFire Assay (human)
Assay type: cell-based
Details: CHO cells stably transfected with short form of human GPR120
Description: GPR120 activity was monitored by measuring phosphorylation of ERK (pERK), since G protein receptors are known to activate the ERK signaling cascade either directly and/or through recruitment of arrestin that serves as a scaffold for downstream signaling events.
GPR120 pERK AlphaScreen SureFire Assay
The human and mouse GPR120-mediated intracellular phosphorylated ERK assays were established using CHOA12 cells stably transfected with the short form of human or mouse GPR120 receptor. […] Cells were cryo preserved at a concentration of 2×10^7 cells/mL, in 90% Charcoal/Dextran FBS and 10% DMSO, and frozen in liquid nitrogen at a low passage number.
The flasks were placed in a tissue culture incubator overnight (37° C., 5% CO2). […] The next day, cells were serum starved in 30 μL of F-12 media without any serum or antibiotics for 2 hours at 37° C.
Cells were then stimulated with 50 nL of compound dilutions using ECHO liquid handler for 7 minutes at 37° C.
(§1) The lysis buffer was diluted 5-fold with water before use. […] The SureFire assay reagent mix was prepared by mixing 60 parts Reaction Buffer, 10 parts Activation Buffer, 1 part Donor Beads, 1 part Acceptor Beads (Perkin Elmer Cat. #TGRES10K). 3.5 μL/well of this reagent mix was manually added to the proxiplate with a multichannel pipettor. Plates were spun down at 1000 rpm for 2 minutes, followed by light-protected incubation at room temperature for 2 hours. The plates were read on the Alpha-technology compatible Envision multilabel plate reader using AlphaScreen protocol according to manufacturer's specifications. The agonist effect of compounds was expressed as 100× (average sample−average blank)/(average total−average blank) where sample is the luminescence activity in the presence of test compound, blank is equal to the luminescence activity in the presence of DMSO control and the total is signal induced by 50 μM linolenic acid as reference compound. Activation data for the test compound over a range of concentrations was plotted as percentage activation of the test compound (100%=maximum response). After correcting for background, EC50 values were determined.
The human and mouse GPR120-mediated intracellular phosphorylated ERK assays were also established using CHO-K1 cells stably transfected with the short form of human or mouse GPR120 receptor. […] Cells were cryo preserved at a concentration of 3×10^6 cells/mL, in 70% F-12, 20% Charcoal/Dextran FBS and 10% DMSO, and frozen in liquid nitrogen at a low passage number.
The flasks were placed in a tissue culture incubator overnight (37° C., 5% CO2).
Cells were then stimulated with 40 nL of compound dilutions using ECHO liquid handler for 7 minutes at 37° C.
as §1, with “compound.” for “compound. Activation data for the test compound over a range of concentrations was plotted as percentage activation of the test compound (100%=maximum response). After correcting for background, EC50 values were determined.”
Activation data for the test compound over a range of concentrations was plotted as percentage activation of the test compound (100%=maximum response). After correcting for background, EC50 values were determined.

Sequence of human GPR120 (Q5NUL3 whole entry): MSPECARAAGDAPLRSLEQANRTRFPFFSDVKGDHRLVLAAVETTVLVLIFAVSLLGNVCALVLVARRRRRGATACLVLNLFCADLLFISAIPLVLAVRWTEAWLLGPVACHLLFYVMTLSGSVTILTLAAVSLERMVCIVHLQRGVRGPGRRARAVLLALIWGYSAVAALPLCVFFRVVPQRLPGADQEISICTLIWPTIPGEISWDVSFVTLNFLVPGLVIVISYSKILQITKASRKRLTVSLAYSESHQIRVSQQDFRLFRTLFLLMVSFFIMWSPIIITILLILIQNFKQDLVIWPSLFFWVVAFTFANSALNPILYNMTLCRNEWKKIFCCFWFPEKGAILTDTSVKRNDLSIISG

SMILES | EC50 [nM]
O=C(O)CO[C@H]1C[C@@H](c2ccc(-c3cc(Oc4cccc(F)c4)cc(F)c3F)cc2)C1 [Example 36, Cis-2-(3-(2′,3′-difluoro-5′-(3-fluorophenoxy)-[1,1′-biphenyl]-4-yl)cyclobutoxy) acetic acid] | 130
CC(C)Oc1ccc(F)c(-c2ccc([C@H]3C[C@@H](OCC(=O)O)C3)cc2)c1F [Example 15, Cis-2-(3-(2′,6′-difluoro-3′-isopropoxy-[1,1′-biphenyl]-4-yl)cyclobutoxy)acetic acid] | 800
Cc1ccc(Oc2ccc(F)c(-c3ccc([C@H]4C[C@@H](OCC(=O)O)C4)cc3)c2)cc1 [Example 31, Cis-2-(3-(2′-fluoro-5′-(p-tolyloxy)-[1,1′-biphenyl]-4-yl)cyclobutoxy)acetic acid] | 710
CC(C)Oc1ccc(F)c(-c2ccc([C@H]3C[C@@H](CC(=O)O)C3)cc2)c1 [Example 45, 2-(Cis-3-(2′-fluoro-5′-isopropoxy-[1,1′-biphenyl]-4-yl)cyclobutyl)acetic acid] | 120
CC(C)Oc1ccc(F)c(-c2ccc(C3CC(CC(=O)O)C3)cc2)c1 (stereo not shown) [Example 43, 2-(3-(2′-Fluoro-5′-isopropoxy-[1,1′-biphenyl]-4-yl)cyclobutyl)acetic acid] | 210
O=C(O)CO[C@H]1C[C@@H](c2ccc(-c3cc(OC4CCCC4)ccc3F)cc2)C1 [Example 3, Cis-2-(3-(5′-(cyclopentyloxy)-2′-fluoro-[1,1′-biphenyl]-4-yl)cyclobutoxy)acetic acid] | 410
CC(C)Oc1cc(F)cc(-c2ccc([C@H]3C[C@@H](OCC(=O)O)C3)cc2)c1 [Example 18, Cis-2-(3-(3′-fluoro-5′-isopropoxy-[1,1′-biphenyl]-4-yl)cyclobutoxy) acetic acid] | 3130
CC(C)Oc1ccc(F)c(-c2ccc(CC3CC(CC(=O)O)C3)cc2)c1 (stereo not shown) [Example 50, 2-(3-((2′-Fluoro-5′-isopropoxy-[1,1′-biphenyl]-4-yl)methyl)cyclobutyl)acetic acid] | 650
O=C(O)COCCC[C@H]1C[C@H](c2cccc(Oc3ccccc3)c2)C1 [Example 56, 2-(3-(Trans-3-(3-phenoxyphenyl)cyclobutyl)propoxy)acetic acid] | 170
Cc1ccc(Oc2cc(F)c(F)c(-c3ccc([C@H]4C[C@@H](OCC(=O)O)C4)cc3)c2)cc1 [Example 38, Cis-2-(3-(2′,3′-difluoro-5′-(p-tolyloxy)-[1,1′-biphenyl]-4-yl)cyclobutoxy)acetic acid] | 540
O=C(O)COCCC[C@H]1C[C@@H](OCc2cccc(Oc3ccccc3)c2)C1 [Example 59, 2-(3-(Cis-3-(3-phenoxybenzyloxy)cyclobutyl)propoxy)acetic acid] | 520
CC(C)Oc1ccc(F)c(-c2ccc(C3CC4(C3)CC4C(=O)O)cc2)c1 (single isomer, unassigned) [Example 41, 5-(2′-Fluoro-5′-isopropoxy-[1,1′-biphenyl]-4-yl)spiro[2.3]hexane-1-carboxylic acid] | 32000
O=C(O)CO[C@H]1C[C@@H](c2ccc(-c3cc(Oc4cccnc4)ccc3F)cc2)C1 [Example 28, Cis-2-(3-(2′-fluoro-5′-(pyridin-3-yloxy)-[1,1′-biphenyl]-4-yl)cyclobutoxy) acetic acid] | 660
Cc1ccc(Oc2ccc(F)c(-c3ccc([C@H]4C[C@@H](OCC(=O)O)C4)cc3)c2)nn1 [Example 29, Cis-2-(3-(2′-fluoro-5′-((6-methylpyridazin-3-yl)oxy)-[1,1′-biphenyl]-4-yl)cyclobutoxy)acetic acid] | 5000
CC1(C)Cc2cc(Cl)cc(-c3ccc([C@H]4C[C@@H](OCC(=O)O)C4)cc3)c2O1 [Example 24, Cis-2-(3-(4-(5-chloro-2,2-dimethyl-2,3-dihydrobenzofuran-7-yl)phenyl)cyclobutoxy) acetic acid] | 2900
CC(C)Oc1cc(Cl)cc(-c2ccc([C@H]3C[C@@H](OCC(=O)O)C3)cc2)c1 [Example 11, Cis-2-(3-(3′-chloro-5′-isopropoxy-[1,1′-biphenyl]-4-yl)cyclobutoxy) acetic acid] | 560
